Measurements from US20150197492A1, “NOVEL INDENO[1,2-c]QUINOLIN-11-ONE DERIVATIVES, PREPARATION METHOD AND APPLICATION THEREOF” (National Defense Medical Center, priority 2014, published 2015).

What was measured:
Assay type in all cases: cell-based
human PC-3 cells = assay: Sulforhodamine B (SRB) assay, cytotoxicity against PC-3 cells; conditions: SRB assay, PC-3 cells
Summary of the method: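 PC-3 cells in 5% FBS were fixed with 10% TCA after 24 h as T0, then treated with compound for 48 h, fixed, stained with 0.4% SRB in 1% acetic acid and solubilized in 10 mmol/L Trizma base. Absorbance was read at 515 nm. GI% = 100−[(Tx−T0)/(C−T0)]×100, and IC50 is the concentration halving total protein.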

[1] = system: 55 to 60 cancer cell lines; conditions: 10 μM
CCRF-CEM = assay: cells
HOP-62 = assay: cells
HOP-92 = assay: cells; conditions: Non-Small Cell Lung Cancer HOP-92
NCI-H226 = assay: cells
NCI-H522 = assay: cells
HCT-15 = assay: cells
KM12 = assay: cells
SF-295 = assay: cells; conditions: CNS Cancer SF-295
SF-539 = assay: cells
SNB-19 = assay: cells
MALME-3M = assay: cells
M14 = assay: cells
SK-MEL-2 = assay: cells; conditions: Melanoma SK-MEL-2
SK-MEL-5 = assay: cells; conditions: Homo sapiens; Melanoma SK-MEL-5
[2] = Homo sapiens, Non-Small Cell Lung Cancer HOP-62
[3] = Homo sapiens, CNS Cancer SF-539
[4] = Homo sapiens, Melanoma MALME-3M

Question: What does the source list for CCN(CC)CCNc1nc2ccccc2c2c1-c1ccc(Cl)cc1C2=O [SJ-3, 6-(2-(Diethylamino)ethylamino)-9-chloro-11H-indeno[1,2-c]quinolin-11-one]?
Answer: Toxicity (%) (human PC-3 cells): 55.6%; GI % (10 μM) (human PC-3 cells; 10 μM): 100%; Mean (mean growth percentage of the tested cancer cell lines) ([1]; 48 hours, all tested cell lines): 62.4%; cytotoxicity in the first stage (in words) ([1]; basis for selection for the five-dose test): potential cytotoxicity; growth percentage (CCRF-CEM; CCRF-CEM (Leukemia), 10 μM, 48 hours): 42.00%; GI50 (CCRF-CEM; Homo sapiens, Leukemia CCRF-CEM): 8.24 µM; CC50 (CCRF-CEM; Homo sapiens, Leukemia CCRF-CEM, read-out: LC50 (the source's name)): 7.8 µM; TGI (CCRF-CEM; Leukemia CCRF-CEM): 3.50 µM; growth percentage (HOP-62; HOP-62 (Non-Small Cell Lung Cancer), 10 μM, 48 hours): 24.86%; GI50 (HOP-62; [2]): 4.51 µM; LC50 (50% lethal concentration) (HOP-62; [2]): 5.74 µM; TGI (HOP-62; Non-Small Cell Lung Cancer HOP-62): 2.83 µM; GI50 (HOP-92; Homo sapiens): 3.08 µM; LC50 (HOP-92; Homo sapiens): 25.1 µM; TGI (HOP-92): 5.80 µM; GI50 (NCI-H226; Homo sapiens, Non-Small Cell Lung Cancer NCI-H226): 1.88 µM; growth percentage (NCI-H226; NCI-H226 (Non-Small Cell Lung Cancer), 10 μM, 48 hours): 80.86%; GI50 (NCI-H522; Homo sapiens, Non-Small Cell Lung Cancer NCI-H522): 27.6 µM; CC50 (NCI-H522; Homo sapiens, Non-Small Cell Lung Cancer NCI-H522, read-out: LC50 (the source's name)): 7.23 µM; growth percentage (NCI-H522; NCI-H522 (Non-Small Cell Lung Cancer), 10 μM, 48 hours): 77.39%; TGI (NCI-H522; Non-Small Cell Lung Cancer NCI-H522): 3.80 µM; TGI (HCT-15; Colon Cancer HCT-15): 3.51 µM; growth percentage (HCT-15; HCT-15 (Colon Cancer), 10 μM, 48 hours): 50.38%; GI50 (HCT-15; Homo sapiens, Colon Cancer HCT-15): 4.37 µM; CC50 (HCT-15; Homo sapiens, Colon Cancer HCT-15, read-out: LC50 (the source's name)): 7.5 µM; TGI (KM12; Colon Cancer KM12): 3.11 µM; GI50 (KM12; Homo sapiens, Colon Cancer KM12): 6.48 µM; CC50 (KM12; Homo sapiens, Colon Cancer KM12, read-out: LC50 (the source's name)): 5.96 µM; growth percentage (KM12; KM12 (Colon Cancer), 10 μM, 48 hours): 53.42%; TGI (SF-295): 4.60 µM; GI50 (SF-295; Homo sapiens): 17.8 µM; LC50 (concentration killing 50% of cells) (SF-295; Homo sapiens): 9.85 µM; TGI (SF-539; CNS Cancer SF-539): 3.15 µM; GI50 (SF-539; [3]): 20.9 µM; LC50 (concentration giving 50% net cell kill) (SF-539; [3]): 5.86 µM; growth percentage (SF-539; SF-539 (CNS Cancer), 10 μM, 48 hours): 85.04%; TGI (SNB-19; CNS Cancer SNB-19): 3.42 µM; GI50 (SNB-19; Homo sapiens, CNS Cancer SNB-19): 18.2 µM; growth percentage (SNB-19; SNB-19 (CNS Cancer), 10 μM, 48 hours): 94.02%; GI50 (MALME-3M; [4]): 17.3 µM; LC50 (concentration killing 50% of cells) (MALME-3M; [4]): 7.46 µM; growth percentage (MALME-3M; MALME-3M (Melanoma), 10 μM, 48 hours): 52.55%; TGI (MALME-3M; Melanoma MALME-3M): 3.83 µM; GI50 (M14; Homo sapiens, Melanoma M14): 16.5 µM; CC50 (M14; Homo sapiens, Melanoma M14, read-out: LC50 (the source's name)): 19.3 µM; growth percentage (M14; M14 (Melanoma), 10 μM, 48 hours): 76.44%; TGI (M14; Melanoma M14): 5.48 µM; GI50 (SK-MEL-2; Homo sapiens): 37.7 µM; CC50 (SK-MEL-2; Homo sapiens, read-out: LC50 (the source's name)): 10.4 µM; TGI (SK-MEL-2): 4.73 µM; GI50 (SK-MEL-5): 1.15 µM
